From patent US20030061671A1, “Thioxanthone dyes with improved solubility and a method of preparing 2-oxybenzanthrones as intermediate materials for making of these dyes” (priority 2001, published 2003)
Where two headings read alike, the source gives them in different places.

What was measured:
[1] = Solubility comparison in chloroform (chloroform added to 0.1 g dye until full solubility); assay type: physicochemical
Method: Solubility Comparison of the Claimed compound and the Prototype
Two mixtures were prepared for comparison. The first one contained a dye prepared as per Example 1 by taking 0.1 g of the dye and adding chloroform until full solubility. The second mixture was prepared using 0.1 g of 6-methoxy-14H-anthra(2,1,9-mna)thioxanthene-14-one dye and also adding chloroform until its full solubility. At the end, 30 ml of chloroform was required to solute 0.1 g of the dye in the first mixture while 120 ml of the chloroform was required to solute the same amount of dye in case of the prototype.

[2] = colorant described by Carlini et al.; cited from earlier work

Row | Compound | chloroform required to solute 0.1 g of the dye ([1]; 0.1 g dye, chloroform added until full solubility) | improvement in solubility in chloroform versus prototype ([1]; claimed dye vs 6-methoxy prototype, chloroform) | solubility in organic solvents and polymer materials [2] | chloroform required to solute 0.1 g of the dye [1]
1 | 6-n-Octyloxy-14H-anthra(2,1,9 mna)thioxanthene-14-one [Example 1] | 30 mL | four-fold |  | 
2 | COc1cc2c3ccccc3c(=O)c3ccc4c5ccccc5sc1c4c32 [6-methoxy-14H-anthra(2,1,9-mna)thioxanthene-14-one] |  |  | poorly soluble | 120 mL
